For 34 molecules, IC50 and inhibition results are on record in ChEMBL document CHEMBL5321272 (J Med Chem, 2023).

Series [1] addresses Receptor-type tyrosine-protein kinase FLT3 (Homo sapiens, UniProt P36888, D835Y).
Description: Inhibition of FLT3 D835Y mutant (unknown origin) using peptide substrate TK-S and ATP as substrate incubated for 1 hr by HTRF assay
In another series the test system is MV4-11. The series is described as follows: cells. The following applies: Homo sapiens, MV4-11, 72 h.
For series [2], the target named is T1, Serine/threonine-protein kinase Chk1 (Homo sapiens, UniProt O14757).
T1 sequence (O14757 whole entry): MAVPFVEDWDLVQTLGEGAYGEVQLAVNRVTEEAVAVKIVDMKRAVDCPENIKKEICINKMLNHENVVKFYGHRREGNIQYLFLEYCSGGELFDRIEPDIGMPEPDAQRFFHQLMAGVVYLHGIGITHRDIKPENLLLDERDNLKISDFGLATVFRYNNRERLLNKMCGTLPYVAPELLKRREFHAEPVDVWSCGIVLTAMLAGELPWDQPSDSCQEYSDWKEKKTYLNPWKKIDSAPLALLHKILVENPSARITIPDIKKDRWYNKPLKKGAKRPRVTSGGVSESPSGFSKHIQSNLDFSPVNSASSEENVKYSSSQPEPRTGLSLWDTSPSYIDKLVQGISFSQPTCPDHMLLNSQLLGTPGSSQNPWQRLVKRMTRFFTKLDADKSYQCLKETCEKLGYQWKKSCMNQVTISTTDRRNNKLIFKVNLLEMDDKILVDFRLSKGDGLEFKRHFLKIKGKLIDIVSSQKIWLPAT
Description: Inhibition of CHK1 (unknown origin) using peptide substrate S1 and ATP as substrate incubated for 1 hr by HTRF assay

Another series has as its target hERG (KCNH2) (Homo sapiens, UniProt Q12809). The series is described as follows: Inhibition of hERG expressed in HEK293 cells at 20 uM by whole cell patch clamp analysis. Format: toxicity, cell-based. The following applies: HEK293 cells expressing hERG.

Molecules are shown by their SMILES.

Sequence of hERG (KCNH2) (Q12809 whole entry): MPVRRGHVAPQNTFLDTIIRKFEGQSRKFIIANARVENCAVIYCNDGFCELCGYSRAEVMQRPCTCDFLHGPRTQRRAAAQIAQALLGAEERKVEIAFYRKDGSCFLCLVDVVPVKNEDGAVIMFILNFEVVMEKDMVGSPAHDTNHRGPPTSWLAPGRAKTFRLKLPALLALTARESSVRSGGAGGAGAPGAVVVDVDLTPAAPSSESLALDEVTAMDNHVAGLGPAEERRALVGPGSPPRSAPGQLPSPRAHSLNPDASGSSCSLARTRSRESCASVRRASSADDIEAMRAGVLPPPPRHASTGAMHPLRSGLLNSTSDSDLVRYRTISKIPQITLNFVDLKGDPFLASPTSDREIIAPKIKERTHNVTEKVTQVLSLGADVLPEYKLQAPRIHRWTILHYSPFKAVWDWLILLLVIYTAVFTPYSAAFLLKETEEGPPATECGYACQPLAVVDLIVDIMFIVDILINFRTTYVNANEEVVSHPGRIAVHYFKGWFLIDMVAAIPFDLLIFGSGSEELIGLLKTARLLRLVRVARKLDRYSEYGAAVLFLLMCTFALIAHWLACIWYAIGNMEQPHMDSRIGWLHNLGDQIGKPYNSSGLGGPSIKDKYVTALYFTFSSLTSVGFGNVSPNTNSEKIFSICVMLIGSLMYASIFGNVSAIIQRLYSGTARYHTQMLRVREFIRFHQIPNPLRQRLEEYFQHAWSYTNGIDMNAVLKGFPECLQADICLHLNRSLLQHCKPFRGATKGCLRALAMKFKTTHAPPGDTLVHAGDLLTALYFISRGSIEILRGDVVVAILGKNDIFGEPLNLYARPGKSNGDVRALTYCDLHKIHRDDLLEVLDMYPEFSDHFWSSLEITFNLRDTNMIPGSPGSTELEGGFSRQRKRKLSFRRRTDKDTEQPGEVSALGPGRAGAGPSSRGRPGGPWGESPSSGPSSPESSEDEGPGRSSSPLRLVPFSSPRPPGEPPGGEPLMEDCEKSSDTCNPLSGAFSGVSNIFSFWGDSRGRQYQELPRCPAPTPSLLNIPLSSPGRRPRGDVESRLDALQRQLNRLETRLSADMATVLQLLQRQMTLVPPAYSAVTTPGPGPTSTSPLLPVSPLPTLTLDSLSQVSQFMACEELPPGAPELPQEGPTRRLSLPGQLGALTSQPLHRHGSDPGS
Description for MV4-11: Antiproliferative activity against human MV4-11 cells assessed as reduction in cell viability incubated for 72 hrs by CellTiter 96 Aqueous One Solution Cell Proliferation Assay

Take `CC(C)(O)CC(=O)N1CCc2cc(Nc3ncc(C(F)(F)F)c(N[C@H]4CC[C@H](N)CC4)n3)ccc2C1`: the IC50 in series [1] was 12 nM; with MV4-11, 5.89 nM; in series [2] it was 96 nM.
`CC(C)(O)Cn1ccc2cc(Nc3ncc(C(F)(F)F)c(N[C@H]4CC[C@@H](N)CC4)n3)ccc2c1=O`: at hERG (KCNH2), the inhibition at 20 µM was 22.1%. Also, the IC50 in series [1] was found to be 3.91 nM; with MV4-11, 0.62 nM; in series [2], 124 nM.
For `CC(C)(O)CC(=O)N1CCc2cc(Nc3ncc(C(F)(F)F)c(NC4CCNCC4)n3)ccc2C1`, the IC50 was 40.9 nM in series [1], 22.4 nM in the series on MV4-11 and 227 nM in series [2].
In the same order, the values of `CC(C)(O)C(=O)N1CCc2nc(Nc3ncc(C(F)(F)F)c(N[C@H]4CC[C@@H](N)CC4)n3)ccc2C1` are 55.4 nM, 9.51 nM and 250 nM.
Regarding `Cn1cnc2cc(Nc3ncc(C(F)(F)F)c(N[C@H]4CC[C@@H](N)CC4)n3)ccc2c1=O`, at 20 µM the inhibition against hERG (KCNH2) was 48.3%. The IC50 was 8.8 nM in series [1], 1.77 nM in the series with MV4-11 and 223 nM in series [2].
Turning to `CC(C)(O)CC(=O)N1CCc2cc(Nc3ncc(C(F)(F)F)c(N[C@H]4CC[C@@H](NS(C)(=O)=O)CC4)n3)ccc2C1`, the values for the half-maximal inhibitory concentration (IC50) (in series [1]; in the series with MV4-11; in series [2]) were 3.8 nM, 6.21 nM and 827 nM, respectively.
The matching figures for `CC(C)(O)CC(=O)N1CCc2cc(Nc3ncc(C(F)(F)F)c(NCCCCCN)n3)ccc2C1`: 3.19 nM, 12.7 nM and 159 nM.
Consider `CC(C)(N)CCNc1nc(Nc2ccc3c(c2)CCN(C(=O)CC(C)(C)O)C3)ncc1C(F)(F)F`, for which the inhibition at 20 µM at hERG (KCNH2) stood at 31.9%. The IC50 in series [1] is 3.32 nM; in the series with MV4-11, 0.62 nM; in series [2], 219 nM.
`CC(C)(O)CC(=O)N1CCc2cc(Nc3ncc(C(F)(F)F)c(N[C@H]4CCCC[C@H]4N)n3)ccc2C1`: the IC50 in series [1] was 1450 nM; in series [2], more than 10000 nM.
Regarding `CCn1ccc2cc(Nc3ncc(C(F)(F)F)c(N[C@H]4CC[C@@H](N)CC4)n3)ccc2c1=O`, the IC50 amounted to 1.59 nM in series [1], 0.99 nM with MV4-11 and 26.7 nM in series [2].
The matching figures for `CNCCCNc1nc(Nc2ccc3c(c2)CCN(C(=O)CC(C)(C)O)C3)ncc1C(F)(F)F`: 27.3 nM, 14.2 nM and 61.6 nM.
The matching figures for `CC(C)(O)CC(=O)N1CCc2cc(Nc3ncc(C(F)(F)F)c(NC[C@H]4CCCNC4)n3)ccc2C1`: 12 nM, 2.71 nM and 86.5 nM.
In the case of `CC(C)(O)CC(=O)N1CCc2cc(Nc3ncc(C(F)(F)F)c(N[C@@H]4CCCC[C@@H]4N)n3)ccc2C1`, the IC50 in series [1] stood at 224 nM; in series [2] it was 1970 nM.
As to `CC(C)(O)CC(=O)N1CCc2cc(Nc3ncc(C(F)(F)F)c(NCCCCN)n3)ccc2C1`, the IC50 turned out to be 1.5 nM in series [1], 0.61 nM with MV4-11 and 41.1 nM in series [2].
`CC(=O)N1CCc2nc(Nc3ncc(C(F)(F)F)c(N[C@H]4CC[C@@H](N)CC4)n3)ccc2C1`: the figures for the half-inhibitory concentration (IC50) (in series [1]; with MV4-11; in series [2]) were 61.4 nM, 1.45 nM and 301 nM, respectively.
Turning to `Cn1ccc2cc(Nc3ncc(C(F)(F)F)c(N[C@H]4CC[C@@H](N)CC4)n3)ccc2c1=O`, at 20 µM the inhibition at hERG (KCNH2) was 75.9%. The molecule also gave a concentration for half-maximal inhibition (IC50) in series [2] of 26.3 nM.
`CC(C)(O)Cn1ccc2cc(Nc3ncc(C(F)(F)F)c(N[C@H]4C[C@H]5CC[C@@H](C4)N5)n3)ccc2c1=O`: the IC50 was 488 nM in series [1], more than 5000 nM in the series on MV4-11 and 2020 nM in series [2].
As for `CC(C)(O)CC(=O)N1CCc2cc(Nc3ncc(C(F)(F)F)c(NCCN)n3)ccc2C1`, the figures for the IC50 in series [1] and in series [2] were 38.2 nM and 135 nM, respectively.
Take `CC(C)(O)CC(=O)N1CCc2cc(Nc3ncc(C(F)(F)F)c(NCC4CCNCC4)n3)ccc2C1`: the IC50 was determined as 10.4 nM in series [1], 6.79 nM with MV4-11 and 87.3 nM in series [2].
In the case of `CC(C)(O)CC(=O)N1CCc2cc(Nc3ncc(C(F)(F)F)c(NC[C@@H]4CCCNC4)n3)ccc2C1`, the values for the IC50 (in series [1]; in the series with MV4-11; in series [2]) were 24.1 nM, 8.26 nM and 336 nM, respectively.
As to `CC(C)(O)CC(=O)N1CCc2cc(Nc3ncc(C(F)(F)F)c(NCCCNS(C)(=O)=O)n3)ccc2C1`, the IC50 in series [1] amounted to 18.1 nM; in series [2], 1950 nM.
On to `CC(C)(O)Cn1cnc2cc(Nc3ncc(C(F)(F)F)c(N[C@H]4CC[C@@H](N)CC4)n3)ccc2c1=O`, for which the inhibition at 20 µM against hERG (KCNH2) was determined as 6.82%. Also, the IC50 in series [1] is 4.56 nM; in the series on MV4-11 it was 1.59 nM; in series [2], 206 nM.
In the same order, the values of `CC(C)(O)CC(=O)N1CCc2cc(Nc3ncc(C(F)(F)F)c(N[C@@H]4CCCNC4)n3)ccc2C1` are 35%, 4.03 nM, 2.26 nM and 35.2 nM.
Consider `CC(C)(O)CC(=O)N1CCc2nc(Nc3ncc(C(F)(F)F)c(N[C@H]4CC[C@@H](N)CC4)n3)ccc2C1`, for which the IC50 in series [1] worked out at 77.1 nM; in the series on MV4-11, 21.4 nM; in series [2], 362 nM.
On to `Cn1ncc2cc(Nc3ncc(C(F)(F)F)c(N[C@H]4CC[C@@H](N)CC4)n3)ccc2c1=O`, for which the inhibition at 20 µM against hERG (KCNH2) worked out at 81.9%. In addition, the IC50 in series [1] was 4.22 nM; with MV4-11, 1.36 nM; in series [2], 58.5 nM.
Regarding `CC(=O)N[C@H]1CC[C@@H](Nc2nc(Nc3ccc4c(c3)CCN(C(=O)CC(C)(C)O)C4)ncc2C(F)(F)F)CC1`, the IC50 in series [1] was found to be 18.9 nM; in the series with MV4-11 it was 20.7 nM; in series [2], 1090 nM.
Consider `CC(=O)NCCCNc1nc(Nc2ccc3c(c2)CCN(C(=O)CC(C)(C)O)C3)ncc1C(F)(F)F`, for which the IC50 is 16.1 nM in series [1], 44.5 nM with MV4-11 and 765 nM in series [2].
`CC(C)(O)Cn1ncc2cc(Nc3ncc(C(F)(F)F)c(N[C@H]4CC[C@@H](N)CC4)n3)ccc2c1=O`: testing at 20 µM at hERG (KCNH2) gave an inhibition of 48.1%. For the same molecule, the results for the IC50 (in series [1]; in the series on MV4-11; in series [2]) were 2.69 nM, 1.1 nM and 66.9 nM, respectively.
As to `CC(C)(O)CC(=O)N1CCc2cc(Nc3ncc(C(F)(F)F)c(NCC(C)(C)CN)n3)ccc2C1`, the IC50 stood at 91.4 nM in series [1], 27.9 nM in the series on MV4-11 and 1060 nM in series [2].
The matching figures for `CC(=O)N1CCc2ccc(Nc3ncc(C(F)(F)F)c(N[C@H]4CC[C@@H](N)CC4)n3)cc21`: 9.84 nM, 36 nM and 58 nM.
As for `CC(C)(O)CC(=O)N1CCc2cc(Nc3ncc(C(F)(F)F)c(N[C@H]4CCCNC4)n3)ccc2C1`, the IC50 in series [1] was 311 nM; in series [2], 952 nM.
For the molecule `CC(C)(O)Cn1ccc2cc(Nc3ncc(C(F)(F)F)c(NC4CC5(CNC5)C4)n3)ccc2c1=O`, the IC50 turned out to be 26.6 nM in series [1], 66.2 nM with MV4-11 and 80.1 nM in series [2].
The matching figures for `CC(C)(N)CNc1nc(Nc2ccc3c(c2)CCN(C(=O)CC(C)(C)O)C3)ncc1C(F)(F)F`: 166 nM, 39.7 nM and 2000 nM.
`N#Cc1cnc(Nc2cc(NC[C@H]3CNCCO3)c(C(F)(F)F)cn2)cn1` [SRA-737]: in the series on MV4-11, the IC50 was found to be 245 nM.
